Experimental data: US9695155B2, “Herbicidal substituted pyrimidinyloxy benzene compounds” (E. I. DU PONT DE NEMOURS AND COMPANY, priority 2013, dated 2017)

Tests used:
[1] = test system: giant foxtail; experiment: Test A preemergence; type: in vivo, Setaria faberii
In short: (§1)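 Pre- and postemergence greenhouse screen. Soil: loam + sand. Spray carrier: solvent mixture, non-phytotoxic, with surfactant. Post timing at 1–2 leaves, height 2–10 cm. Readout: visual injury on a 0–100 scale roughly 10 days after application, untreated plants as reference.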

[2] = test system: pigweed; experiment: Test A postemergence; type: in vivo, Amaranthus retroflexus
In short: as §1

[3] = test system: Heteranthera limosa; experiment: Test B flooded paddy test; type: in vivo; details: Flood, 250 g ai/ha; 0 to 100 scale where 0 is no effect and 100 is complete control
In short: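 Visual ratings on a 0 to 100 scale, where 100 means complete control, compared treated plants with controls after 13 to 15 days in a greenhouse. Treatment went into paddy water 3 cm deep over the soil, applied to plants at the 2-leaf stage.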

[4] = test system: Italian ryegrass; experiment: Test C preemergence; type: in vivo, Lolium multiflorum; details: preemergence
In short: (§2)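 Greenhouse herbicide screen. Pre: seeded loam/sand, sprayed at planting. Post: 1–4 leaf plants (2–18 cm) in peat-based mix. Formulation: solvent mixture + surfactant, non-phytotoxic. Readout: visual % control vs untreated, 13–15 d; dash = not tested.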

[5] = test system: galium; experiment: Test C preemergence; type: in vivo, Galium aparine; details: for Galium plant response rating: preemergence; for Plant response rating, Galium: Preemergence, 31 g ai/ha, scale 0 to 100, 0 no effect, 100 complete control
In short: as §2

[6] = test system: johnsongrass; experiment: Test C preemergence; type: in vivo, Sorghum halepense; details: preemergence
In short: as §2

[7] = test system: morningglory; experiment: Test C preemergence; type: in vivo, Ipomoea coccinea; details: preemergence
In short: as §2

[8] = test system: oilseed rape; experiment: Test C preemergence; type: in vivo, Brassica napus; details: preemergence
In short: as §2

[9] = test system: velvetleaf; experiment: Test C preemergence; type: in vivo, Abutilon theophrasti; details: preemergence
In short: as §2

[10] = test system: wheat, winter; experiment: Test C postemergence; type: in vivo, Triticum aestivum; details: for Plant response rating (0 to 100), Wheat: 16 g ai/ha, 0 is no effect, 100 is complete control; for Wheat plant response rating: 31 g ai/ha, 13 to 15 days; for Wheat plant response rating / Plant response rating, Wheat: scale 0 to 100 (0 no effect, 100 complete control)
In short: as §2

[11] = test system: corn; experiment: Test C postemergence; type: in vivo, Zea mays; details: for Plant response rating (0 to 100), Corn: 16 g ai/ha, 0 is no effect, 100 is complete control; for Corn plant response rating: 31 g ai/ha, 13 to 15 days; for Corn plant response rating / Plant response rating, Corn: scale 0 to 100 (0 no effect, 100 complete control)
In short: as §2

[12] = test system: large (Lg) crabgrass; experiment: Test C postemergence; type: in vivo, Digitaria sanguinalis; details: for Plant response rating (0 to 100), Crabgrass, Large: 16 g ai/ha, 0 is no effect, 100 is complete control; for Crabgrass, Large plant response rating: 31 g ai/ha, 13 to 15 days; for Crabgrass, Large plant response rating / Plant response rating, Crabgrass, Large: scale 0 to 100 (0 no effect, 100 complete control)
In short: as §2

[13] = test system: chickweed; experiment: Test C postemergence; type: in vivo, Stellaria media; details: for Plant response rating (0 to 100), Chickweed: 16 g ai/ha, 0 is no effect, 100 is complete control; for Chickweed plant response rating: 31 g ai/ha, 13 to 15 days; for Chickweed plant response rating / Plant response rating, Chickweed: scale 0 to 100 (0 no effect, 100 complete control)
In short: as §2

[14] = 125 g ai/ha, 0 to 100 scale where 0 is no effect and 100 is complete control
[15] = 500 g ai/ha, 0 to 100 scale where 0 is no effect and 100 is complete control
[16] = 16 g ai/ha, scale 0 to 100 (0 no effect, 100 complete control)
[17] = 62 g ai/ha, scale 0 (no effect) to 100 (complete control)
[18] = 125 g ai/ha, scale 0 (no effect) to 100 (complete control)
[19] = 125 g ai/ha, postemergence, visual rating

Structure (SMILES) | Plant response rating, Ducksalad [3] | Ryegrass, Italian plant response rating [4, 16] | Ryegrass, Italian plant response rating [4, 17] | Ryegrass, Italian plant response rating [4, 18] | Galium plant response rating [5, 16] | Galium plant response rating [5, 17] | Galium plant response rating [5, 18] | Plant response rating, Galium [5] | Johnsongrass plant response rating [6, 16] | Johnsongrass plant response rating [6, 17] | Johnsongrass plant response rating [6, 18] | Morningglory plant response rating [7, 16] | Morningglory plant response rating [7, 17] | Morningglory plant response rating [7, 18] | Oilseed Rape plant response rating [8, 16] | Oilseed Rape plant response rating [8, 17] | Oilseed Rape plant response rating [8, 18] | Velvetleaf plant response rating [9, 16] | Velvetleaf plant response rating [9, 17] | Velvetleaf plant response rating [9, 18] | other results
CCCOc1cnn(-c2c(C#N)cccc2Oc2ncc(Cl)cn2)c1 [Compound 150] | 90 | 0 | 30 | 50 | 0 | 90 | 100 | 80 | 0 | 70 | 80 | 0 | 45 | 75 | 0 | 90 | 100 | 5 | 60 | 70 | Plant response rating, Foxtail, Giant [1, 14]: 100; Foxtail, Giant plant response rating [1, 15]: 100; Pigweed plant response rating [2, 14]: 100; Plant response rating, Pigweed [2, 15]: 100; Plant response rating (0 to 100), Wheat ([10]; postemergence): 5; Wheat plant response rating ([10]; postemergence, visual rating): 5; Plant response rating, Wheat [10, 19]: 25; Plant response rating, Wheat ([10]; Postemergence, 62 g ai/ha): 5; Plant response rating (0 to 100), Corn ([11]; postemergence): 5; Corn plant response rating ([11]; postemergence, visual rating): 10; Plant response rating, Corn [11, 19]: 10; Plant response rating, Corn ([11]; Postemergence, 62 g ai/ha): 10; Plant response rating (0 to 100), Crabgrass, Large ([12]; postemergence): 5; Crabgrass, Large plant response rating ([12]; postemergence, visual rating): 5; Plant response rating, Crabgrass, Large [12, 19]: 10; Plant response rating, Crabgrass, Large ([12]; Postemergence, 62 g ai/ha): 5; Plant response rating (0 to 100), Chickweed ([13]; postemergence): 50; Chickweed plant response rating ([13]; postemergence, visual rating): 65; Plant response rating, Chickweed [13, 19]: 70; Plant response rating, Chickweed ([13]; Postemergence, 62 g ai/ha): 65
FCc1cn(-c2c(F)cccc2Oc2ncc(Cl)cn2)nn1 [Compound 154] | 80 | 0 | 20 | 25 | 80 | 95 | 95 | 95 | 0 | 40 | 85 | 10 | 50 | 85 | 98 | 100 | 100 | 85 | 100 | 100 | Foxtail, Giant plant response rating ([1]; 1000 g ai/ha, 0 to 100 scale, 0 no effect, 100 complete control, approx. 10 days): 100; Plant response rating, Pigweed ([2]; 1000 g ai/ha, 0 to 100 scale, 0 no effect, 100 complete control): 100; Plant response rating (0 to 100), Wheat ([10]; postemergence): 0; Wheat plant response rating ([10]; postemergence, visual rating): 0; Plant response rating, Wheat [10, 19]: 5; Plant response rating, Wheat ([10]; Postemergence, 62 g ai/ha): 0; Plant response rating (0 to 100), Corn ([11]; postemergence): 0; Corn plant response rating ([11]; postemergence, visual rating): 0; Plant response rating, Corn [11, 19]: 0; Plant response rating, Corn ([11]; Postemergence, 62 g ai/ha): 0; Plant response rating (0 to 100), Crabgrass, Large ([12]; postemergence): 5; Crabgrass, Large plant response rating ([12]; postemergence, visual rating): 10; Plant response rating, Crabgrass, Large [12, 19]: 10; Plant response rating, Crabgrass, Large ([12]; Postemergence, 62 g ai/ha): 10; Plant response rating (0 to 100), Chickweed ([13]; postemergence): 5; Chickweed plant response rating ([13]; postemergence, visual rating): 5; Plant response rating, Chickweed [13, 19]: 60; Plant response rating, Chickweed ([13]; Postemergence, 62 g ai/ha): 10
